According to ChEMBL document CHEMBL1201862, “PubChem BioAssay data set” (2004):
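Five concentrations, 48 hours, 96-well plates. Here, GI50 denotes the concentration required for 50% inhibition of growth.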 Calls of active or inactive are those of the source. Rule as the data show it: active = GI50 up to about 1.1 µM and inactive = higher.

Tests used:
Assay in all cases: DTP human tumour cell line panel, 48 h
SN12C = system: SN12C
SK-MEL-2 = system: SK-MEL-2
HOP-92 = system: HOP-92
SK-MEL-5 = system: SK-MEL-5
OVCAR-3 = system: OVCAR-3
OVCAR-5 = system: OVCAR-5
HT-29 = system: HT-29
OVCAR-4 = system: OVCAR-4
LOX IMVI = system: LOX IMVI
UO-31 = system: UO-31
SNB-75 = system: SNB-75
NCI-H23 = system: NCI-H23
Malme-3M = system: Malme-3M
PC-3 = system: PC-3
T47D = system: T47D
MCF7 = system: MCF7
UACC-62 = system: UACC-62
SNB-19 = system: SNB-19
SF-268 = system: SF-268
UACC-257 = system: UACC-257
SF-295 = system: SF-295
SR = system: SR
MOLT-4 = system: MOLT-4
786-0 = system: 786-0
MDA-MB-231 = system: MDA-MB-231
M14 = system: M14
CAKI-1 = system: CAKI-1
HCT-116 = system: HCT-116
NCI/ADR-RES = system: NCI/ADR-RES
EKVX = system: EKVX
MDA-MB-435 = system: MDA-MB-435
OVCAR-8 = system: OVCAR-8
HCC 2998 = system: HCC 2998
DU-145 = system: DU-145
KM12 = system: KM12
NCI-H226 = system: NCI-H226
K562 = system: K562
SK-OV-3 = system: SK-OV-3
COLO 205 = system: COLO 205
RPMI-8226 = system: RPMI-8226
NCI-H460 = system: NCI-H460
Hs-578T = system: Hs-578T
NCI-H522 = system: NCI-H522
BT-549 = system: BT-549
A498 = system: A498
CCRF-CEM = system: CCRF-CEM
U-251 = system: U-251
A549 = system: A549
SK-MEL-28 = system: SK-MEL-28
TK-10 = system: TK-10
IGROV-1 = system: IGROV-1
HOP-62 = system: HOP-62
RXF 393 = system: RXF 393
SW-620 = system: SW-620
ACHN = system: ACHN
HCT-15 = system: HCT-15
HL-60 = system: HL-60
MDA-N = system: MDA-N
SF-539 = system: SF-539

Measured: GI50

Cc1cc(CNC(=O)OCc2ccccc2)c(C)c2c1Oc1ccccc1O2
inactive: SN12C 24.3 µM | HOP-92 1.26 µM | SK-MEL-5 > 100 µM | OVCAR-3 57.8 µM | OVCAR-5 43.4 µM | HT-29 20.2 µM | OVCAR-4 21.3 µM | LOX IMVI > 100 µM | UO-31 28.6 µM | SNB-75 11.8 µM | NCI-H23 24.3 µM | Malme-3M 75.9 µM | PC-3 43.4 µM | T47D 25.8 µM | MCF7 49.5 µM | UACC-62 26.5 µM | SNB-19 25.5 µM | SF-268 20.7 µM | UACC-257 > 100 µM | SF-295 31.8 µM | SR > 100 µM | MOLT-4 > 100 µM | 786-0 15 µM | MDA-MB-231 6.67 µM | M14 69.7 µM | CAKI-1 21.1 µM | HCT-116 36.6 µM | NCI/ADR-RES 19 µM | EKVX 42.9 µM | MDA-MB-435 > 100 µM | OVCAR-8 17.1 µM | HCC 2998 > 100 µM | DU-145 71 µM | KM12 43.6 µM | NCI-H226 26.5 µM | K562 > 100 µM | SK-OV-3 17.1 µM | COLO 205 50.1 µM | RPMI-8226 > 100 µM | NCI-H460 > 100 µM | Hs-578T 19.7 µM | NCI-H522 13.9 µM | BT-549 62.8 µM | A498 23 µM | CCRF-CEM > 100 µM | U-251 18.8 µM | A549 20.9 µM | SK-MEL-28 > 100 µM | TK-10 41.8 µM | IGROV-1 24.2 µM | HOP-62 17.4 µM | RXF 393 12.7 µM | SW-620 > 100 µM | ACHN 43.8 µM
active: SK-MEL-2 < 0.01 µM
97.5 µM: HCT-15

CCCCC1C=Cn2c(=O)oc3c(OC(C)C)c(OC(C)C)c(O)c1c32 (configuration not stated)
14.6 µM: HCT-15
inactive: SN12C 20.5 µM | SK-MEL-2 15.3 µM | HOP-92 14.3 µM | SK-MEL-5 14.7 µM | OVCAR-3 16.4 µM | OVCAR-5 17.2 µM | HT-29 14.6 µM | OVCAR-4 21.5 µM | LOX IMVI 14.3 µM | HL-60 4.56 µM | UO-31 13.6 µM | SNB-75 13 µM | NCI-H23 12.2 µM | PC-3 38.2 µM | T47D 4.44 µM | MCF7 12.2 µM | UACC-62 13.4 µM | SNB-19 18.2 µM | SF-268 18.5 µM | UACC-257 15.6 µM | SF-295 18.5 µM | MOLT-4 6.1 µM | 786-0 20 µM | MDA-N 20.9 µM | MDA-MB-231 14.1 µM | M14 22.3 µM | CAKI-1 15.1 µM | HCT-116 17.4 µM | EKVX 29.9 µM | MDA-MB-435 12.5 µM | OVCAR-8 14.9 µM | DU-145 14.8 µM | KM12 14.4 µM | NCI-H226 14 µM | SK-OV-3 25.2 µM | COLO 205 16.3 µM | NCI-H460 15.4 µM | Hs-578T 18.3 µM | NCI-H522 11.6 µM | BT-549 14.3 µM | A498 17.1 µM | CCRF-CEM 8.49 µM | U-251 16 µM | A549 17.2 µM | SK-MEL-28 13.6 µM | TK-10 16.3 µM | HOP-62 20.7 µM | SW-620 13.9 µM | ACHN 36.6 µM | SF-539 23.6 µM
